From patent US20120021434A1, “METHOD FOR TREATING B CELL REGULATED AUTOIMMUNE DISORDERS” (Synta Pharmaceuticals Corp., priority 2005, published 2012)

Columns and labels:
Assay type in all cases: cell-based
c-Rel = biological target: T1, c-Rel (Homo sapiens, UniProt Q04864); experiment: Nuclear c-Rel in PMA+ionomycin stimulated Jurkat T cells (immunoblot); settings: 100 nM
T1 construct: a western blot assay of THP1 nuclear c-Rel, p50 and p65 proteins was carried out; endogenous in cells; host or cells: THP-1; Jurkat
T1 sequence (Q04864 1-619): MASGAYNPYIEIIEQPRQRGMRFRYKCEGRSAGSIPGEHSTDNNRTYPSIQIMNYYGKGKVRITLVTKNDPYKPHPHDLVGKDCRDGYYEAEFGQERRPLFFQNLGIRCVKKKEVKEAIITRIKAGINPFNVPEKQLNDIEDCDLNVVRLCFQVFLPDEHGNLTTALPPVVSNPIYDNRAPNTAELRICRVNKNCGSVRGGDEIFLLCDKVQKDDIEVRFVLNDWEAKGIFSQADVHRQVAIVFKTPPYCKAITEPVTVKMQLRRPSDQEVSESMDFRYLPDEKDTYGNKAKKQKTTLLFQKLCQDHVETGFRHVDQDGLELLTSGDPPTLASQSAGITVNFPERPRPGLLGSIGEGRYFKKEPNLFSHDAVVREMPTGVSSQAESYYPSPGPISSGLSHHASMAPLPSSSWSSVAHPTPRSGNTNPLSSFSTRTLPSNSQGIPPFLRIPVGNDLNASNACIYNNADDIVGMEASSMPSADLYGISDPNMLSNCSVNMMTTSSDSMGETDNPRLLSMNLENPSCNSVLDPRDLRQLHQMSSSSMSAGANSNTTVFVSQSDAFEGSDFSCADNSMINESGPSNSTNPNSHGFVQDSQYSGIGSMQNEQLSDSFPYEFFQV
Excerpt: We therefore examined the accumulation of nuclear c-Rel in these cells by immunoblot analysis.

NF-κB p50 = experiment: Kinetics of p50 nuclear translocation in LPS-stimulated THP1 cells (immunoblot, densitometry); settings: 100 nM
Method: (§1) Compound 50 impairs nuclear accumulation of c-Rel and slightly reduces nuclear accumulation of p50. We examined the nuclear translocation kinetics of NF-κB family members in LPS stimulated cells treated with Compound 50. THP1 cells were stimulated with LPS in either the presence or absence of 100 nM Compound 50, and the distribution of the NF-κB Rel family members was determined by immunoblotting nuclear (n.p.) extracts collected at 5 min, 15 min, 30 min, 1 h, 3 h and 6 h post-treatment. In response to LPS stimulation, p50 translocated into the nucleus as early as 5 minutes post-stimulation and accumulates as time goes on (FIG. 4, immunoblots and FIG. 5 densitometry). […] The experiment examining p65 nuclear translocation is shown in FIG. 6 (immunoblots) and FIG. 7 (densitometry). In LPS stimulated cells, p65 translocated into the nucleus as early as 5 minutes post-stimulation and accumulated to maximum levels at 15-30 minutes post-stimulation. Treatment of LPS-stimulated cells with Compound 50 had no effect on the kinetics of p65 nuclear entry.

NF-κB p65 = experiment: Kinetics of p65 nuclear translocation in LPS-stimulated THP1 cells (immunoblot, densitometry); settings: 100 nM
Method: as §1

p65 = experiment: Western blot of THP-1 nuclear extracts: p65; settings: IFN-γ plus LPS or IFN-γ plus SAC
Method: The THP-1 cell, Jurkat cell and RAW264.7 cell line were obtained from American Type Culture Collection (Manassas, Va.). The THP-1 Jurkat cells were cultured in RPMI 1640 (ATCC, Manassas, Va.), supplemented with 10% FCS (ATCC, Manassas, Va.), and 1% penicillin/Streptomycin (Gibco-BRL, New York, N.Y.). The RAW264.7 cells were cultured in DMEM (ATCC, Manassas, Va.) supplemented with 10% FCS (ATCC, Manassas, Va.), and 1% penicillin/Streptomycin (Gibco-BRL, New York, N.Y.). The cells were stimulated with human or murine recombinant IFNγ (100 ng/ml) for 10 h followed by LPS (1 μg/ml) or SAC (0.025%) CpG ([…]) in the presence or absence of Compound 50 at different concentrations for an additional incubation.
THP-1 cells were suspended in 20 volumes of buffer A containing 10 mM KCl, 10 mM HEPES (pH 7.9), 1 mM MgCl2, 1 mM dithiothreitol (DTT), 0.1% Nonidet p40 (NP-40), and 0.5 mM phenylmethylsulfonyl fluoride (PMSF) and homogenized and centrifuged at 10,000 rpm at 4C afor 5 min. […]
Of the transcription factors that have been analyzed, two factors, ICSBP and c-Rel, seem to be affected by Compound 4/Compound 50 treatment. […]

levels of nuclear c-Rel (c-Rel): reduced
SMILES: Cc1cccc(/C=N/Nc2cc(N3CCOCC3)nc(OCCc3ccccn3)n2)c1 [Compound 50, N-(3-Methyl-benzylidene)-N′-[6-morpholin-4-yl-2-(2-pyridin-2-yl-ethoxy)-pyrimidin-4-yl]-hydrazine]
kinetics of p50 nuclear entry (NF-κB p50; 5 minutes to 1 hr post-stimulation): no effect | nuclear p50 protein levels (NF-κB p50; 3 hours): small decrease | kinetics of p65 nuclear entry (NF-κB p65): no effect | level of nuclear p65 relative to untreated cells (NF-κB p65; 6 hours): small increase | nuclear p65 protein (p65): increased
